Here are results for 2 compounds from patent US10464907B2, “Compound having HSP90 inhibitory activity or pharmaceutically acceptable salt thereof, and medical use thereof” (priority 2016, dated 2019).

Like-named read-outs stand apart in the source and are kept apart here.

In data set [1] the test system is H1975. In words: MTS cell proliferation / survival assay. The data set is classed as cell-based. The procedure: Sk-Br3 (Korean cell line bank), a breast cancer cell, and H1975 cell (ATCC), a nonsmall cell lung cancer, were cultured in RPMI 1640 containing 25 mM HEPES (4-(2-hydroxyethyl)-1-piperazineethanesulfonic acid) and RPMI 1640 containing L-glutamine (containing streptomycin ([…]), penicillin (100 units/mL) and 10% fetal bovine serum (FBS)).
The cells were cultured under a humidified atmosphere of 37° C. and 5% CO2.
Next, non-metastatic lung cancer cells were treated with Compound 17 and the cell proliferation rate or cell survival rate was measured by MTS [3-(4,5-dimethylthiazol-2-yl)-5-(3-carboxymethoxyphenyl)-2-2H-tetrazolium, inner salt] analysis.
Cells were dispensed in 96-well plates at 3000 cell/well (Sk-Br3) and 2000 cell/well (H1975), and 100 μL of the medium was added per well and then was incubated overnight.
Cell proliferation was evaluated using the Promega Cell Titer 96 Aqueous One Solution cell proliferation assay.
After compound and cell culture, 20 μL of assay substrate solution was added to each well and incubated at 37° C. for an additional 1 hour.
Cell proliferation was confirmed by measuring the absorbance at 490 nm using a microplate reader (Tecan Infinite F200 Proplate reader).

The nature of data set [2]: LogP. The data set is classed as physicochemical. Conditions: called measured values of LogP. How it is done:
All experimental data were analyzed using Prism software (version 5.0, Graphpad Software, San Diego, Calif.). In addition, tPSA (Topological Polar Surface Area) calculated using Chemdraw software and the measured values of LogP are shown in Tables 1 and 2 below.

The test system of data set [3] is HSP90 client protein of EGFR, Her2, Met, Akt, c-Raf, Cpk4. Briefly: Protein expression analysis (western blotting), Compound 17. The data set is classed as cell-based. Particulars: 24 hours, FIG. 4. The procedure: Next, the cells were dispensed into 100 mm culture dishes (1×10^6/dish) and adhered to the bottom surface overnight. Compound 17 at a concentration of 0.05, 0.1, 0.5 or 1 μM was added to the cells, followed by further culture for 24 hours.
In addition, cells were treated with DMSO (1%) or geladinamycin (1 μM) as a control and cultured for 24 hours.
The cultured cells were harvested and lysed in ice-cold lysis buffer (23 mM Tris-HCl pH 7.6, 130 mM NaCl, 1% NP40, 1% sodium deoxycholate, 0.1% SDS (sodium dodecylsulfate)), and 30 μg of the lysate was separated by SDS-PAGE (SDS-polyacrylamide gel electrophoresis) and transferred to a PVDF membrane (Bio-Rad).
Membranes were blocked with TBST (Tween 20 containing Tris-Buffered Saline) containing 5% skim milk and incubated with the respective primary antibodies [EGFR (Epidermal growth factor receptor), Her2 (human epidermal growth factor receptor type 2), Met, N-cadherin, E-cadherin, α-tubulin, acetyl-α-tubulin, protein kinase B (Akt), c-Raf, Cdk4 (Cyclin-dependent kinase 4), HSP90, HSP70, PARP (Poly ADT-ribose Polymerase), caspase 3, cleaved caspase 3, truncated caspase 8, B-cell lymphoma 2 (Bcl-2), Bax or β-Actin, purchased from Cell Signaling Technology (USA)].
After binding to a secondary antibody conjugated with horseradish peroxidase, the protein was visualized by ECL (electrochemiluminescence, GE healthcare, USA).
On the technique in general: Immunoblotting shows a protein as a band on a membrane.

Data set [4] deals with H1975. In words: H1975 colony formation (clogenic assay). The data set is classed as cell-based. Particulars: 0.05 μM, 3 weeks, FIG. 3. The procedure:
H1975 cells were treated with Compound 17 at a concentration of 0.05 or 0.5 μM for 3 weeks and then clogenic assay was performed.
First, RPMI1640 medium (10% FBS, 0.48% agar) was added to a 6-well plate and hardened, and then, 10000 cells (H1975) were dispensed in a medium containing RPMI1640 medium (10% FBS, 0.33% agar) and solidified. After solidification, the cells were treated with compound at a concentration of 0.05 or 0.5 μM for 24 hours, followed by culturing for 3 weeks, and then colony formation was confirmed using a crystal violet staining solution.

Data set [5] relates to H1975 cells. Briefly: MTS cell viability in H1975 cells resistant to Gefitinib. The data set is classed as cell-based. Conditions: H1975, 3 days. How it is done:
To confirm the cell viability according to the concentration of the compound synthesized in H1975 cells (ATCC) resistant to Gefitinib, MTS [3-(4,5-dimethylthiazol-2-yl)-5-[…]carboxymethoxyphenyl)-2-(4-sulfophenyl)-2H-tetrazolium, inner salt] analysis was performed. When the cells were cultured so as to occupy 80% of the bottom of the culture dish, the cells were detached and diluted with RPMI 1640 medium to a concentration of 1.5×10^3 cells/well. Each 100 μL of the suspension was added to each well of a 96-well plate and cultured for 14 hours. Then, the medium was changed to the culture solution treated with compound of each concentration each concentration (1a-g: 0, 1, 5, 10, 30, 50 or 100 μM, 14a-I, 16a, b, 21a-f: 0, 0.01, 0.1, 1, 5, 10, 30, 50, 70 or 100 μM), and cultured for 3 days. Each 20 μL of the MTS solution was dispensed into each well and reacted for 1 hour at 37° C. in an incubator supplied with 5% CO2.

Data set [6] addresses HSP90α (Homo sapiens (Human), UniProt P07900). In words: Fluorescence polarization assay, binding ability to HSP90, benzamide compounds. Conditions: GA-FITC 100 nM; read-out: HSP90 FP) (IC50; nM). How it is done:
1 M dithiothreitol (DTT), 10 mg/m: BGG (bovine gamma globulin) were added to hexafluorobenzene (HFB) buffer (20 mM HEPES pH 7.3, 50 mM KCl, 5 mM MgCl2, 20 mM Na2MoO4, 0.01% NP4O, 3rd distilled water) and mixed. Then, 100 nM […] (GA)-FITC (Fluorescein isothiocyanate) was added and reacted at room temperature for 10 minutes. Each 100 μL of the mixture was dispensed into the control wells of a 96-well plate, 2 μL of HSP90α was added to the remaining mixture, and each 100 μL of the other wells was dispensed. […] The binding ability of the compound to HSP90 was expressed as mP (millipolarization unit=1000 mP unit).
(In general: In fluorescence polarisation assays a small probe gives low polarisation when free and higher when bound to something large.)

Data set [7] has as its system HSP90 client proteins (Her2, EGFR, Met, Akt, c-Raf) and HSP70 in H1975 cells. In words: Analysis of protein expression (western blot), Compound 21f. The data set is classed as cell-based. How it is done:
Compound 21f having good efficacy was selected and HSP90 client protein proliferation effect in the same cell line was confirmed, in which the HSP90 client proteins were Her2 (human EGFR-related 2), EGFR (epidermal growth factor receptor), Met and c-Raf were used.
H1975 cells resistant to Gefitinib were cultured in a medium supplemented with 10% fetal bovine serum (FBS) for 24 hours, and the cells were detached, harvested and diluted with a RPMI 1640 medium so as to be 5×10^5 cells/well. Each 5 mL of the suspension was added to […] culture dish and cultured for 24 hours. Then, the medium was changed to the culture solution treated with each compound of concentration (21f: 0, 0.05, 0.1, 0.5 or 1 μM, GA: 1 μM), and cultured for 24 hours. After culture, the cells were harvested and centrifuged at 1300 rpm for 5 minutes at 4° C., and the supernatant was removed. The pellet was washed with phosphate buffered saline, centrifuged once again under the same conditions, and the supernatant was removed. Lysis buffer was added to the remaining pellet and lysed by vortexing at 5 minute intervals for 30 minutes. The supernatant was separated by centrifugation at 16000 rcf for 4 minutes at 4° C., and proteins were quantified using BCA ([…]) kit. SDS-PAGE (sodium dodecylsulfate-polyacrylamide gel electrophoresis) was performed using 10, 12% running gel and 4% stacking gel (10 mA per gel). The separated proteins were transferred to an immunoblot PVDF membrane (polyvinylidene fluoride membrane) at 100 V for 75 minutes. The membranes were blocked with 5% skim milk solution for 2 hours and then added a primary antibody diluted in the ratio of 1: 750-1,000 in 0.1% tween-20 solution and reacted at 4° C. for 12 hours. After washing three times with TBS-T (Tris-buffered saline and Tween 20 containing Tween 20) and detected with an image analyzer using ECL (enhanced chemiluminescence) solution.

As for `CC(C)c1cc(C(=O)N2CCN(C)CC2c2ccccc2)c(O)cc1O` (stereo not shown) [Compound 17, (2,4-dihydroxy-5-isopropylphenyl)(4-methyl-2-phenylpiperazin-1-yl)methanone], the “cell death (cell survival)” value in data set [1] (72 hours, FIG. 2B) is “cell death was also observed”. Besides, the IC50 (usually the midpoint of a concentration-inhibition curve) in data set [1] (Homo sapiens, NCI-H1975, read-out: IC50 for H1975) was 98 µM. Besides, the inhibition (commonly the percentage by which the read-out fell short of the control) at 10 µM in data set [1] (Homo sapiens, NCI-H1975, read-out: Inhibition rate at 10 μM (%)) amounted to 72.1%. The inhibition at 30 µM in data set [1] (Homo sapiens, NCI-H1975, read-out: Inhibition rate at 30 μM (%)) was determined as 77.6%. Also, the “proliferation rate of the cells” value in data set [1] (non-small cell lung cancer cells, 1, 2 and 3 days, FIG. 2A) is reported as “inhibited in a concentration-dependent manner”. In addition, the logP (usually a log measure of how a compound divides between an organic and an aqueous phase) in data set [2] stood at 3.8. In data set [3] (0.05-1 μM), the “HSP protein inhibition / degradation of HSP90 client protein” value is given as “inhibited HSP protein in concentration-dependent manner”. Besides, in data set [3], the “concentration at which most of the client proteins were denatured” value is on record as 500 nM. Further, in data set [4], the “colony formation of H1975” value is reported as “inhibited”.
As for `CCCNC(=O)c1ccc(CN(C)C(=O)c2cc(C(C)C)c(O)cc2O)cc1` [Compound 21f, 2,4-dihydroxy-5-isopropyl-N-methyl-N-(4-(propylcarbamoyl)benzyl) benzamide], the EC50 (in general, the concentration needed to bring the measured effect to its halfway point) in data set [5] (read-out: H1975 (EC50; μM)) came out at 0.42 µM. The EC50 in data set [5] (read-out: H1975 EC50) stood at 0.42 µM. Also, the half-inhibitory concentration (IC50) in data set [6] was found to be 5.3 nM. The “expression of HSP90 client proteins” value in data set [7] (H1975, 0.05-1 μM, 24 hours, FIG. 5) is “inhibited in a concentration-dependent manner”. In data set [7] (H1975, 24 hours), the “concentration at which expression of HSP70 was increased” value was determined as 0.5 µM; the “concentration at which expression was significantly decreased: EGFR” value came to 0.1 µM; the “concentration at which expression was significantly decreased: Her2, Met, and Akt” value turned out to be 0.5 µM.
